In ChEMBL document CHEMBL1150977, “A quantitative analysis of kinase inhibitor selectivity” (Nat Biotechnol, 2008):

What was measured:
[1] = molecular target: Mitogen-activated protein kinase 14 (Homo sapiens, UniProt Q16539)
[2] = molecular target: Epidermal growth factor receptor (Homo sapiens, UniProt P00533, G719C)
[3] = molecular target: Epidermal growth factor receptor (Homo sapiens, UniProt P00533)
[4] = molecular target: Epidermal growth factor receptor (Homo sapiens, UniProt P00533, G719S)
[5] = molecular target: Epidermal growth factor receptor (Homo sapiens, UniProt P00533, E746-A750DEL)
[6] = molecular target: Epidermal growth factor receptor (Homo sapiens, UniProt P00533, L747-T751DEL)
[7] = molecular target: Cyclin-dependent kinase 9 (Homo sapiens, UniProt P50750)

Structure (SMILES) | Kd [1] [µM] | Kd [2] [µM] | Kd [3] [µM] | Kd [4] [µM] | Kd [5] [µM] | Kd [6] [µM] | Kd [7] [µM]
COCC(=O)NC/C=C/c1ccc2ncnc(Nc3ccc(Oc4ccc(C)nc4)c(C)c3)c2c1 [CP-724714] | > 10 | – | – | – | – | – | –
Nc1nc(Nc2ccc(S(N)(=O)=O)cc2)nn1C(=O)c1c(F)cccc1F [JNJ-7706621] | – | > 10 | > 10 | > 10 | > 10 | > 10 | –
CCOc1cc2ncc(C#N)c(Nc3ccc(F)c(Cl)c3)c2cc1NC(=O)/C=C/CN(C)C [PELITINIB] | > 10 | – | – | – | – | – | –
Oc1ccc(-c2nc(-c3ccncc3)c(-c3ccc(F)cc3)[nH]2)cc1 [SB-202190] | – | – | – | – | – | – | > 10
NC(=O)c1ccc(-c2nc(-c3ccc4c(c3)OCO4)c(-c3ccccn3)[nH]2)cc1 [SB-431542] | – | > 10 | > 10 | > 10 | > 10 | > 10 | > 10
